Results as given in US10913727B2, “Modulators of the integrated stress pathway” (Calico Life Sciences LLC, priority 2016, dated 2021).

system: HEK293T cells carrying the ATF4 luciferase reporter; experiment: ATF4-Luc assay, in vitro model of Vanishing Cell White Matter Disease (VWMD); format: cell-based; details: Homo sapiens, HEK-293T, 1 μg/mL tunicamycin, 7 hours, One Glo luminescence
Outline: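 Compound at 200 nM and tunicamycin at 1 μg/mL were given together for 7 h to HEK293T cells stably transduced with an ATF4 5′-UTR-driven firefly luciferase reporter. Read-out by luminescence, reported as EC50.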

First: O=C(COc1ccc(Cl)c(F)c1)NC12CCC(NC(=O)c3cncs3)(CC1)C(O)C2 (stereo not shown) [Compound 213, N-{4-[2-(4-chloro-3-fluorophenoxy)acetamido]-2-hydroxybicyclo[2.2.2]octan-1-yl}-1,3-thiazole-5-carboxamide]
Second: Cn1cc(C(=O)NC23CCC(NC(=O)COc4ccc(Cl)c(F)c4)(CC2)C(O)C3)cn1 (stereo not shown) [Compound 626, N-{4-[2-(4-chloro-3-fluorophenoxy)acetamido]-3-hydroxybicyclo[2.2.2]octan-1-yl}-1-methyl-1H-pyrazole-4-carboxamide]
The EC50 of the first is higher: 0.25 to 1 µM for the first, 0.05 to 0.25 µM for the second. The second is the more potent here.

First: Cc1cc(C)n2nc(C(=O)NC34CCC(NC(=O)COc5ccc(Cl)c(F)c5)(CC3)[C@@H](O)C4)nc2n1 [Compound 750, N-{(3S)-4-[2-(4-chloro-3-fluorophenoxy)acetamido]-3-hydroxybicyclo[2.2.2]octan-1-yl}-5,7-dimethyl[1,2,4]triazolo[1,5-a]pyrimidine-2-carboxamide]
Second: Cc1cc(C(=O)NC23CCC(NC(=O)COc4ccc(Cl)c(F)c4)(CC2)C[C@@H]3O)n(C)n1 [Compound 506, N-{(2S)-4-[2-(4-chloro-3-fluorophenoxy)acetamido]-2-hydroxybicyclo[2.2.2]octan-1-yl}-1,3-dimethyl-1H-pyrazole-5-carboxamide]
The EC50 of the first is higher: greater than 2 µM for the first, 0.05 to 0.25 µM for the second.

First: N#Cc1cccc(C(=O)NC23CCC(NC(=O)COc4ccc(Cl)c(F)c4)(CC2)CC3O)c1 (stereo not shown) [Compound 209, N-{4-[2-(4-chloro-3-fluorophenoxy)acetamido]-2-hydroxybicyclo[2.2.2]octan-1-yl}-3-cyanobenzamide]
Second: Cc1cccc(C(=O)NC23CCC(NC(=O)COc4ccc(Cl)c(F)c4)(CC2)C(O)C3)n1 (stereo not shown) [Compound 914, N-{4-[2-(4-chloro-3-fluorophenoxy)acetamido]-3-hydroxybicyclo[2.2.2]octan-1-yl}-6-methylpyridine-2-carboxamide]
The EC50 of the first is higher: 0.25 to 1 µM for the first, 0.05 to 0.25 µM for the second. The second is the more potent here.

`O=C(COc1ccc(Cl)c(F)c1)NC12CCC(NC(=O)c3cc(-c4c(F)cccc4F)no3)(CC1)CC2O` (stereo not shown) [Compound 409, N-{4-[2-(4-chloro-3-fluorophenoxy)acetamido]-3-hydroxybicyclo[2.2.2]octan-1-yl}-3-(2,6-difluorophenyl)-1,2-oxazole-5-carboxamide] and `Cc1cccc(C(=O)NC23CC(NC(=O)COc4ccc(Cl)c(F)c4)(C2)C3)n1` [Compound 891, N-{3-[2-(4-chloro-3-fluorophenoxy)acetamido]bicyclo[1.1.1]pentan-1-yl}-6-methylpyridine-2-carboxamide] fall in the same range of EC50: 0.05 to 0.25 µM for the first, 0.05 to 0.25 µM for the second.

First: COc1ccsc1C(=O)NC12CC(NC(=O)COc3ccc(Cl)c(F)c3)(C1)C2 [Compound 548, N-{3-[2-(4-chloro-3-fluorophenoxy)acetamido]bicyclo[1.1.1]pentan-1-yl}-3-methoxythiophene-2-carboxamide]
Second: COc1cc(OC)cc(C(=O)NC23CC(NC(=O)COc4ccc(Cl)c(F)c4)(C2)C3)c1 [Compound 303, N-{3-[2-(4-chloro-3-fluorophenoxy)acetamido]bicyclo[1.1.1]pentan-1-yl}-3,5-dimethoxybenzamide]
The EC50 of the first is higher: greater than 2 µM for the first, 1 to 2 µM for the second.

Compared with `Cc1cc2c(NC34CC(NC(=O)COc5ccc(Cl)c(F)c5)(C3)C4)nccn2n1` [Compound 394, 2-(4-chloro-3-fluorophenoxy)-N-{3-[(2-methylpyrazolo[1,5-a]pyrazin-4-yl)amino]bicyclo[1.1.1]pentan-1-yl}acetamide], `O=C(COc1ccc(Cl)c(F)c1)NC12CC(NC(=O)c3nc4ccccc4s3)(C1)C2` [Compound 907, N-{3-[2-(4-chloro-3-fluorophenoxy)acetamido]bicyclo[1.1.1]pentan-1-yl}-1,3-benzothiazole-2-carboxamide] is higher in EC50: less than 0.05 µM for the first, 0.05 to 0.25 µM for the second.

For `O=C(COc1ccc(Cl)cc1)NC12CC(NC(=O)c3cnc(C(F)F)cn3)(C1)C2` [Compound 202, N-{3-[2-(4-chlorophenoxy)acetamido]bicyclo[1.1.1]pentan-1-yl}-5-(difluoromethyl)pyrazine-2-carboxamide], the EC50 was 0.05 to 0.25 µM.
